Consider two compounds from publication PMC10671498, “Antiproliferative and Cytotoxic Properties of Propynoyl Betulin Derivatives against Human Ovarian Cancer Cells: In Vitro Studies” (International Journal of Molecular Sciences, 2023).

Series [1] deals with OVCAR-3 cells. Nature of the series: LDH release assay, OVCAR-3. The format is cell-based, human. The note with it: OVCAR-3, 24 h. The method, then:
In order to evaluate the cytotoxic effect, the release of LDH into the culture medium using the In Vitro Toxicology Assay Kit, Lactic Dehydrogenase Based (TOX7; Sigma Aldrich) was assessed. SK-OV-3 and OVCAR-3 cells were plated and cultured in 96-well plates (Greiner Bio-One) at the initial density of 5 × 10^3 cells per well in 100 µL of culture medium. The density of the cells was determined in the same manner as in the SRB assay. After 24 h, the media were replaced with the working solutions, which contained appropriate test compounds at concentrations of 3 μM, 10 μM, 30 μM, and control medium (0.2% DMSO). Cells were exposed to the test substances for 24 h. The background control comprised wells without cells with only control medium. To determine the maximal LDH release (high control), half of the control cultures were treated with lysis buffer. Wells with untreated cells were used as the low control of the assay. LDH activity in media was assessed according to the manufacturer’s protocol. The absorbance was measured at wavelengths of 490 nm and 690 nm (background), and the percentage of released enzyme was calculated for cells growing in the presence of compounds according to the formula:Cytotoxicity [%] = [(AT − AL)/(AH − AL)] × 100 where AT is the absorbance of treated wells; AL is low control; and AH is high control (maximal LDH release).
Cytotoxicity was expressed as a percentage of the released LDH calculated according to the difference between the absorbance of the treated and low control wells divided by the difference between the absorbance of the high control and low control wells.
In general terms: LDH leaks from cells whose membrane has failed.

In series [2] the test system is OVCAR-3 cells. Nature of the series: DNA fragmentation assay (Cell Death Detection ELISA, cytoplasmic fraction), OVCAR-3. It counts as cell-based, human. The note with it: OVCAR-3, 24 h; for DNA fragmentation (number of mono- and oligonucleosomes): 3 µM and 10 µM. How it is done: Fragmentation of genomic DNA was determined by means of the Cell Death Detection ELISAPLUS kit (Roche, Basel, Switzerland). This method rests on the immunoenzymatic detection of DNA–histone complexes in the cytoplasmic cell fraction or cell culture supernatants. Cells were plated and cultured in 96-well plates (Greiner Bio-One) at the initial density of 5 × 10^3 cells per well in 100 µL of culture medium. Cells were allowed to attach and grow for 1 day prior to the addition of test reagents. Then, the media were replaced with the working solutions (3 µM, 10 µM, 30 µM), and cells were exposed to compounds 2–6 for 24 h. In some cases, 5 µM cyclosporin A (CsA, an inhibitor of the mitochondrial permeability transition) was added to the cells 30 min before treatment with the betulin derivative. Subsequently, cells were incubated concomitantly with both compounds. After a 24 h incubation period, plates were centrifuged (200× g; 10 min), media were removed, and cells were lysed for 30 min at room temperature. At the next step, the lysates were again spun (200× g; 10 min), and 20 µL of supernatants (cytoplasmic fractions) was moved to the new 96-well streptavidin-coated plate. In one experiment, the presence of mono- and oligonucleosomes was determined in 20 µL samples of centrifuged culture supernatants (media) to detect the permeability of plasma membrane (considered as an indicator of cell necrosis). Then, the sandwich ELISA assay was fulfilled according to the manufacturer’s protocol. Absorbance was measured at 405 nm and 490 nm (reference wavelength), and the enrichment factor of the cytoplasmic (or supernatant) fraction in mono- and oligonucleosomes was calculated according to the formula: EF = absorbance of sample cells/absorbance of control cells.
A high EF index in the cytoplasmic fraction (resulting from DNA fragmentation while maintaining the tightness of cell membranes) is a typical indicator of the relatively early stage of apoptosis.

In series [3] the test system is 18Co normal myofibroblasts. Nature of the series: SRB cell proliferation assay, 18Co normal myofibroblasts. It counts as cell-based. The note with it: 18Co, Neg: negative in the concentration used. The method, then: Next, 18Co cells (ATCC No. CRL-1459™) were cultured in MEM medium containing HEPES buffer, 10% fetal bovine serum, 100 U/mL penicillin, and 100 μg/mL streptomycin (all from Sigma Aldrich).
(§1) Betulin 1 and its derivatives were dissolved in dimethyl sulfoxide (DMSO; Sigma Aldrich) as a 15 mM stock solution. Working solutions were prepared through the dilution of stock solutions with culture medium. The final DMSO concentration in culture media was adjusted to 0.2%. The effect of tested compounds on the proliferation of SK-OV-3 and OVCAR-3 cells was measured using the In Vitro Toxicology Assay Kit, Sulforhodamine B based (Sigma Aldrich). Cells were seeded in 96-well plates (Greiner Bio-One, Kremsmünster, Austria) at an initial density of 3 × 10^3 cells per well in 200 µL of culture medium. After 24 h of incubation, betulin 1 and its derivatives at a concentration range of 0.1 μM to 30 μM were added to the wells. Control cultures were treated with vehicle alone (0.2% DMSO). The incubation periods for cells with test compounds were 1 day, 3 days, and 5 days. After appropriate incubation periods, culture media were removed, and cells were fixed in 10% trichloroacetic acid solution for 60 min at 4 °C. After fixation, the TCA solution was removed, and the plates were washed three times with deionized water (300 μL/well) and dried. At the next step, cells were stained with 0.4% sulforhodamine B for 30 min. The excess dye was removed by washing three times with 1% (vol/vol) acetic acid. The protein-bound dye was dissolved in 200 μL 10 mM Tris base solution. Absorbance was measured at 570 nm and 690 nm (reference wavelength) using the MRX Revelation plate reader (Dynex Technologies, Chantilly, VA, USA).
(§2) GraphPad Prism 10.0.2 (GraphPad Software Inc., San Diego, CA, USA) software was used for calculations and the statistical analysis of the IC50 values (Table 1). IC50 was determined by using the “nonlinear regression” mode, and the “log(inhibitor) vs. normalised response—Variable slope” equation was chosen in GraphPad Prism software for calculations. The obtained data were normalized to run from 100% down to 0%, and logarithms of concentration were used. Graphs (Figure 2, Figure 3, Figure 4, Figure 5 and Figure 8, and Supplementary Figure S1) were also prepared using this software. In the case of the lack of normal distribution or homogeneity of variances, the remaining results were analyzed using a non-parametric Kruskal–Wallis test with multiple comparisons. Post hoc analysis was performed with the non-parametric equivalent of Tukey’s test. A p value of <0.05 was considered statistically significant. Otherwise, a one-way ANOVA followed by a Tukey’s post hoc test was applied. t-tests was used to perform pairwise comparisons between group means. Analysis was performed using Statistica 13.1 software (StatSoft, Tulsa, OK, USA).

The subject of series [4] is OVCAR-3 cells. Nature of the series: SRB cell proliferation assay, OVCAR-3. The format is cell-based, human. The following applies: for IC50: Homo sapiens. How it is done: OVCAR-3 cells (ATCC No. HTB-161™) were cultured in RPMI-1640 medium containing HEPES buffer (2.383 g/L), sodium bicarbonate (1.5 g/L), sodium pyruvate (0.11 g/L) supplemented with 20% fetal bovine serum, 10 µg/mL bovine insulin, 100 U/mL penicillin, and 100 μg/mL streptomycin (all from Sigma Aldrich).
as §1, §2

SMILES strings stand for the structures. Like-named read-outs stand apart in the source and are kept apart here.

Consider `C=C(C)[C@@H]1CC[C@]2(CO)CC[C@]3(C)[C@H](CC[C@@H]4[C@@]5(C)CC[C@H](O)C(C)(C)[C@@H]5CC[C@]43C)[C@@H]12` [Compound 1, lup-20(29)-ene-3β,28-diol, reference compound], for which the “cytotoxicity (released LDH), loss of cell membrane integrity” value in the series with OVCAR-3 cells [1] (30 µM) is recorded as “loss of cell membrane integrity was also confirmed”. The “DNA fragmentation (number of mono- and oligonucleosomes)” value with OVCAR-3 cells [2] is on record as “comparable to the control”. Also, in the series on OVCAR-3 cells [2] (30 µM), the “DNA fragmentation (enrichment factor)” value is recorded as “caused an increase in DNA fragmentation”. Further, the IC50 (as a rule, the concentration needed to halve the response being measured) in series [3] (3 days treatment) was “Neg”; in series [3] (5 days treatment), “Neg”; in the series with OVCAR-3 cells [4] (72 h, OVCAR-3, 3 days treatment, SRB assay, read-out: IC50), 9.03 µM; in the series on OVCAR-3 cells [4] (120 h, OVCAR-3, 5 days treatment, SRB assay, read-out: IC50) it was 10.1 µM.

Turning to `C#CC(=O)OC[C@]12CC[C@@H](/C(C)=C/P(=O)(OCC)OCC)C1C1CCC3[C@@]4(C)CC[C@H](O)C(C)(C)C4CC[C@@]3(C)[C@]1(C)CC2` (some centres unmarked) [Compound 6, E-29-diethoxyphosphoryl-28-O-propynoylbetulin], the “cytotoxicity (released LDH)” value in the series with OVCAR-3 cells [1] (all concentrations (3, 10, 30 μM)) is “significant cytotoxic activity”. Moreover, the “DNA fragmentation (number of mono- and oligonucleosomes)” value with OVCAR-3 cells [2] is given as “slightly smaller effect than the lowest concentration of compound 4”. The IC50 entry in series [3] (3 days treatment) is “Neg”; in series [3] (5 days treatment), “Neg”; in the series with OVCAR-3 cells [4] (OVCAR-3, 72 h), 0.68 µM; in the series on OVCAR-3 cells [4] (OVCAR-3, 120 h), 0.59 µM. The “concentration at which antiproliferative activity (decrease in the number of cells) was evident” value in the series on OVCAR-3 cells [4] (OVCAR-3, SRB assay, 0.1–30 µM) turned out to be 1 µM.
